This passage reports GI50 and IC50 results from US20230115350A1 (Cedilla Therapeutics, Inc., priority 2021, published 2023).

For orientation: GI50 means the concentration at which growth is held to half of that of the control. Low readings indicate more potent growth inhibition, high ones less potent growth inhibition. What is called IC50 is the concentration needed to halve the response being measured.

The subject of one test is NCI-H226. Description: 72H TEAD Proliferation Assay (Cell Titer-Glo 2.0). The class given is cell-based. Particulars: CTG 2.0, cell line not given. The protocol: The effect of TEAD inhibition on cell proliferation was assayed using Cell Titer Glo (CTG) 2.0 to measure response in mesothelioma cell lines NCI-H226 (ATCC, #CRL-5826) and NCI-H28 (ATCC, #CRL-5820).
The 72H TEAD Proliferation assay utilizes Cell Titer-Glo 2.0 (Promega, #G9243) to measure the proliferation of cells in the presence or absence of compound. Cell Titer-Glo 2.0 determines the amount of viable cells by quantifying ATP (an indication of metabolically active cells). It utilizes the conversion of Luciferin to Oxyluciferin and a luminescent signal with the use of ATP to report the quantity of viable cells in culture. Within cells that are continually growing, ATP is being synthesized to meet their metabolic demands, meanwhile the opposite is true for cells that are dying or slowing down their proliferation and either no longer using ATP or are using less, respectively. The NF2-deficient NCI-H226 has been genetically validated as a cell line that is sensitive to TEAD inhibition. The NF2-wild type NCI-H28 has been genetically validated as a cell line that is not sensitive to TEAD inhibition and grows independently of TEAD activity.
Compounds were screened against the responsive NCI-H226 cell line to assess the compounds' ability to inhibit TEAD and cell growth. Compounds were also screened against the non-responsive NCI-H28 cell line to ascertain whether the inhibition of cell growth was due to inhibition of the target TEAD or whether the inhibition was due to off-target cytotoxicity.
1) Assay ready plates (ARPs) were prepared by Echo acoustic liquid handler. For each compound, duplicate of 10-point half-log dilution series were dispensed in a 384-well microplate (Corning 3571).
5) NCI-H226 or NCI-H28 cells were harvested from culture in Assay Medium 1 and the multidrop Combi reagent dispenser was used to seed cells at 500 cells per 50 ul in each well of the ARPs and one Corning 3571 plate without compounds for Time 0 (TO) readout.
6) The TO plate was incubated for 2 hours at 37° C. with 5% CO2 to allow cells to settle, then the CTG Assay was performed.
7) All ARPs were incubated for 72 hours at 37° C. with 5% CO2, then the CTG Assay was performed for Time 72H (T72) readout.
8) CTG Assay: Bravo liquid handler (Agilent) was used to add 25 ul of CTG 2.0 to all columns of the plate except for Column 24, which was used to subtract out the background. After CTG addition, plates were placed on shaker at 800 RPM for 15 minutes at room temperature and kept in the dark. Luminescence was measured using EnVision multilabel plate reader with ultra-sensitive detection module.
9) Data Analysis: First background luminescence (no CTG wells) was subtracted from luminescence reading of all wells, then TO luminescence was subtracted from T72 luminescence. To compare anti-proliferative effect of compounds, GI50 was obtained by fitting dose response curves with nonlinear regression curve fit.
For orientation: In ATP-based viability assays light output follows the ATP content of the culture.

The target in test [1] is TEAD1 protein (YAP Binding Domain) (Homo sapiens, UniProt P28347). Description: TEAD1 lipid pocket compound displacement assay (TR-FRET, Cy5-probe). Conditions: 60 minutes incubation at room temperature; TR-FRET 665 nm/620 nm; read-out: CDA IC50. The procedure:
Compound Displacement Assay.
A TEAD1 lipid pocket displacement assay was carried out according to the following protocol. Purified His-tagged TEAD1 protein (YAP Binding Domain) was pre-mixed with a Cy5-probe (Cy5-conjugated to a small molecule that binds in the TEAD1 lipid pocket) and Terbium-labeled anti-His antibody (Cisbio Cat 61HI2TLB). The binding of the Cy5-probe to anti-His-Tb/His-tag TEAD1 complex yielded a TR-FRET signal. […] After 60 minutes incubation at room temperature of compounds with the His-TEAD1/anti-His-Tb/Cy5-probe complex, the plate was read on a plate reader (BMG ClarioStar Cat 430-1300) using TR-FRET mode with wavelengths of 665 nm/620 nm. The potency of compounds as TEAD1 lipid pocket binders was determined by IC50 value generated using a non-linear 4 parameter curve fit.
(In general: Time-resolved FRET reads energy transfer from a long-lived donor to a nearby acceptor.)

TEAD1 protein (YAP Binding Domain), sequence (P28347 209-426 limits assumed): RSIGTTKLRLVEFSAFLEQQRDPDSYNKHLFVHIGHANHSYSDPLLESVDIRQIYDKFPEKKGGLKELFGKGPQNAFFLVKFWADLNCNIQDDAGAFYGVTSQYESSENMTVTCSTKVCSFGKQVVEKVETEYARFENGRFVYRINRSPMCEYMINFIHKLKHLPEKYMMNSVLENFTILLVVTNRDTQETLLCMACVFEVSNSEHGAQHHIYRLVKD

The compound `C=CC(=O)Nc1cc2nc(CC(C)(C)C)oc2cc1F` [Compound 143, N-(6-fluoro-2-neopentylbenzo[d]oxazol-5-yl)acrylamide] came in with a GI50 in the test on NCI-H226 (Homo sapiens, NCI-H226, 72 h) of 250 to 1000 nM. Also, the IC50 in test [1] fell in the range of 500 to 2000 nM.

As to `C=CC(=O)Nc1ccc(OCc2cc(C(F)(F)F)ccn2)c(F)c1` [Compound 117, N-(3-fluoro-4-((4-(trifluoromethyl)pyridin-2-yl)methoxy)phenyl)acrylamide], the GI50 with NCI-H226 (Homo sapiens, NCI-H226, 72 h) was 250 to 1000 nM. In test [1], the IC50 fell in the range of 250 to 500 nM.

Compound `C=CC(=O)Nc1cc2nc(C3CCC(F)(F)CC3)oc2cc1F` [Compound 138, N-(2-(4,4-difluorocyclohexyl)-6-fluorobenzo[d]oxazol-5-yl)acrylamide] returned a GI50 with NCI-H226 of 1000 to 3000 nM. In test [1], the IC50 was 250 to 500 nM.

Consider `C=CC(=O)Nc1cc2nc(CC3CC3)oc2cc1F` [Compound 134, N-(2-(cyclopropylmethyl)-6-fluorobenzo[d]oxazol-5-yl)acrylamide], for which, in the test with NCI-H226 (Homo sapiens, NCI-H226, 72 h), the GI50 is 1000 to 3000 nM. Further, the IC50 in test [1] is over 2000 nM.

Compound `C=CC(=O)Nc1cc2nc(Cc3ccccc3)oc2cc1F` [Compound 137, N-(2-benzyl-6-fluorobenzo[d]oxazol-5-yl)acrylamide] came in with a GI50 in the test with NCI-H226 (Homo sapiens, NCI-H226, 72 h) of over 3000 nM. Also, the IC50 in test [1] fell in the range of 250 to 500 nM.

In turn, `C=CC(=O)Nc1cnc(OCc2cccc(F)c2)c(F)c1` [Compound 129, N-(5-fluoro-6-((3-fluorobenzyl)oxy)pyridin-3-yl)acrylamide] showed a GI50 in the test on NCI-H226 (Homo sapiens, NCI-H226, 72 h) of over 3000 nM. In addition, the IC50 in test [1] is 250 to 500 nM.

In the test on NCI-H226 (Homo sapiens, NCI-H226, 72 h), `C=CC(=O)Nc1ccc(/C=C/c2cccc(F)c2)c(F)c1` [Compound 27, (E)-N-(3-fluoro-4-(3-fluorostyryl)phenyl)acrylamide] came in with a GI50 of 1000 to 3000 nM. The IC50 in test [1] is 500 to 2000 nM.

In the case of `C=CC(=O)Nc1ccc(COc2cccc(C(F)(F)F)c2)c(F)c1` [Compound 31, N-(3-fluoro-4-((3-(trifluoromethyl)phenoxy)methyl)phenyl)acrylamide], in the test on NCI-H226 (Homo sapiens, NCI-H226, 72 h), the GI50 was at most 250 nM. For the same compound, the IC50 in test [1] was at most 250 nM.

For `C=CC(=O)Nc1ccc(OCc2cccc(CC)c2)c(F)c1` [Compound 26, N-(4-((3-ethylbenzyl)oxy)-3-fluorophenyl)acrylamide], the GI50 with NCI-H226 (Homo sapiens, NCI-H226, 72 h) is 250 to 1000 nM. Also, the IC50 in test [1] is at most 250 nM.

In the test on NCI-H226 (Homo sapiens, NCI-H226, 72 h), `C=CC(=O)Nc1cc2nc(CCC(F)(F)C(F)(F)F)oc2cc1F` [Compound 140, N-(6-fluoro-2-(3,3,4,4,4-pentafluorobutyl)benzo[d]oxazol-5-yl)acrylamide] displayed a GI50 of at most 250 nM. Further, the IC50 in test [1] was at most 250 nM.

The compound `C=CC(=O)Nc1ccc(OCC2CCCC(C(F)(F)F)C2)c(F)c1` (stereo not shown) [Compound 91, N-(3-fluoro-4-((3-(trifluoromethyl)cyclohexyl)methoxy)phenyl)acrylamide] came in with a GI50 with NCI-H226 (Homo sapiens, NCI-H226, 72 h) of 250 to 1000 nM. For the same compound, in test [1], the IC50 is at most 250 nM.

With `C=CC(=O)Nc1ccc(OCc2cccnc2Br)c(F)c1` [Compound 74, N-(4-((2-bromopyridin-3-yl)methoxy)-3-fluorophenyl)acrylamide], the GI50 in the test with NCI-H226 (Homo sapiens, NCI-H226, 72 h) was over 3000 nM. Further, in test [1], the IC50 was over 2000 nM.

On to `C=CC(=O)Nc1ccc(OCc2cccc(F)c2)cc1F` [Compound 45, N-(2-fluoro-4-((3-fluorobenzyl)oxy)phenyl)acrylamide], for which the GI50 in the test with NCI-H226 (Homo sapiens, NCI-H226, 72 h) is over 3000 nM.

In the case of `C=CC(=O)Nc1cc2nc(CC3CC3C)oc2cc1F` (stereo not shown) [Compound 145, N-(6-fluoro-2-((2-methylcyclopropyl)methyl)benzo[d]oxazol-5-yl)acrylamide], the GI50 in the test with NCI-H226 (Homo sapiens, NCI-H226, 72 h) is at most 250 nM. Further, the IC50 in test [1] was 250 to 500 nM.

With `C=CC(=O)Nc1ccc(OCc2cccc(F)c2)c(F)c1` [Compound 100, N-(3-fluoro-4-((3-fluorobenzyl)oxy)phenyl)acrylamide], in the test with NCI-H226 (Homo sapiens, NCI-H226, 72 h), the GI50 was over 3000 nM. The IC50 in test [1] lay in the range of 250 to 500 nM.

The compound `C=CC(=O)Nc1ccc(OCc2cncc(C)c2)c(F)c1` [Compound 71, N-(3-fluoro-4-((5-methylpyridin-3-yl)methoxy)phenyl)acrylamide] had a GI50 in the test on NCI-H226 (Homo sapiens, NCI-H226, 72 h) of over 3000 nM. The IC50 in test [1] was over 2000 nM.

The compound `C=CC(=O)Nc1ccc(C2COc3ccccc3N2)c(F)c1` (stereo not shown) [Compound 121, N-(4-(3,4-dihydro-2H-benzo[b][1,4]oxazin-3-yl)-3-fluorophenyl)acrylamide] displayed a GI50 with NCI-H226 (Homo sapiens, NCI-H226, 72 h) of over 3000 nM. Besides, in test [1], the IC50 was in the range of 500 to 2000 nM.

The compound `C=CC(=O)Nc1ccc(OC(C)c2cccc(F)c2)c(F)c1` (stereo not shown) [Compound 124, N-(3-fluoro-4-(1-(3-fluorophenyl)ethoxy)phenyl)acrylamide] showed a GI50 with NCI-H226 (Homo sapiens, NCI-H226, 72 h) of over 3000 nM. In addition, the IC50 in test [1] fell in the range of 250 to 500 nM.

The compound `C=CC(=O)Nc1ccc(Oc2ccc(C)cc2)c(F)c1` [Compound 114, N-(3-fluoro-4-(p-tolyloxy)phenyl)acrylamide] returned a GI50 in the test with NCI-H226 (Homo sapiens, NCI-H226, 72 h) of over 3000 nM. The IC50 in test [1] was at most 250 nM.

Compound `C=CC(=O)Nc1ccc(OCc2cccc(C(F)(F)F)n2)c(F)c1` [Compound 115, N-(3-fluoro-4-((6-(trifluoromethyl)pyridin-2-yl)methoxy)phenyl)acrylamide] gave a GI50 in the test on NCI-H226 (Homo sapiens, NCI-H226, 72 h) of at most 250 nM. Besides, the IC50 in test [1] was in the range of 250 to 500 nM.

In the test with NCI-H226 (Homo sapiens, NCI-H226, 72 h), `C=CC(=O)Nc1ccc(OCc2cccc(F)c2)c(C)c1` [Compound 51, N-(4-((3-fluorobenzyl)oxy)-3-methylphenyl)acrylamide] gave a GI50 of over 3000 nM. Also, in test [1], the IC50 lay within 250 to 500 nM.

For `C=CC(=O)Nc1ccc(OCc2ccc(F)c(F)c2)c(F)c1` [Compound 96, N-(4-((3,4-difluorobenzyl)oxy)-3-fluorophenyl)acrylamide], the GI50 in the test with NCI-H226 (Homo sapiens, NCI-H226, 72 h) was 250 to 1000 nM. Moreover, in test [1], the IC50 was at most 250 nM.

`C=CC(=O)Nc1ccc(COc2cccc(F)c2)c(F)c1` [Compound 28, N-(3-fluoro-4-((3-fluorophenoxy)methyl)phenyl)acrylamide] yielded a GI50 with NCI-H226 (Homo sapiens, NCI-H226, 72 h) of 250 to 1000 nM. Further, in test [1], the IC50 lay in the range of 250 to 500 nM.

For `C=CC(=O)Nc1ccc(C2COc3ccccc3O2)c(F)c1` (stereo not shown) [Compound 122, N-(4-(2,3-dihydrobenzo[b][1,4]dioxin-2-yl)-3-fluorophenyl)acrylamide], in the test on NCI-H226 (Homo sapiens, NCI-H226, 72 h), the GI50 was over 3000 nM. Moreover, the IC50 in test [1] was at most 250 nM.

Take `C=CC(=O)Nc1ccc(OCc2ccc(Cl)nc2)c(F)c1` [Compound 72, N-(4-((6-chloropyridin-3-yl)methoxy)-3-fluorophenyl)acrylamide]: the GI50 in the test with NCI-H226 (Homo sapiens, NCI-H226, 72 h) is over 3000 nM. Also, the IC50 in test [1] was in the range of 500 to 2000 nM.

With `C=CC(=O)Nc1ccc(OCc2cncc(C(F)(F)F)c2)cc1C#N` [Compound 42, N-(2-cyano-4-((5-(trifluoromethyl)pyridin-3-yl)methoxy)phenyl)acrylamide], the GI50 in the test with NCI-H226 (Homo sapiens, NCI-H226, 72 h) was in the range of 250 to 1000 nM. In test [1], the IC50 is over 2000 nM.

In the test with NCI-H226 (Homo sapiens, NCI-H226, 72 h), `C=CC(=O)Nc1ccc(OC(C)c2cccc(C(F)(F)F)c2)c(F)c1` (stereo not shown) [Compound 105, N-(3-fluoro-4-(1-(3-(trifluoromethyl)phenyl)ethoxy)phenyl)acrylamide] had a GI50 of 250 to 1000 nM. Also, the IC50 in test [1] is at most 250 nM.

Compound `C=CC(=O)Nc1ccc(OCc2cccc(Cl)c2F)c(F)c1` [Compound 99, N-(4-((3-chloro-2-fluorobenzyl)oxy)-3-fluorophenyl)acrylamide] registered a GI50 in the test on NCI-H226 (Homo sapiens, NCI-H226, 72 h) of over 3000 nM. Further, the IC50 in test [1] is at most 250 nM.

For `C=CC(=O)Nc1ccc(OCc2cncc(C(F)(F)F)c2)c(F)c1` [Compound 104, N-(3-fluoro-4-((5-(trifluoromethyl)pyridin-3-yl)methoxy)phenyl)acrylamide], in the test with NCI-H226 (Homo sapiens, NCI-H226, 72 h), the GI50 was in the range of 250 to 1000 nM. Besides, the IC50 in test [1] lay within 250 to 500 nM.

`C=CC(=O)Nc1cc2nc(CCCC(F)(F)F)oc2cc1F` [Compound 133, N-(6-fluoro-2-(4,4,4-trifluorobutyl)benzo[d]oxazol-5-yl)acrylamide] displayed a GI50 in the test with NCI-H226 (Homo sapiens, NCI-H226, 72 h) of at most 250 nM.
